# Data: ChEMBL document CHEMBL2016519, “A comparative study of backbone versus side chain peptide cyclization: application for HIV-1 integrase inhibitors” (Bioorg Med Chem, 2012)
# pKd: −log10 of the molar value. The source made the active and inactive calls. No cut-off for these calls is given here. Starred links: 1 amine or outer side, 2 acyl side, 3 side chain; linkers in the order of their positions; H or OH if unused. Positions of bridges follow the written chain, without caps; N, C: chain ends. Non-standard residues stand in square brackets, D forms with d. Residues, ends and D or L forms follow the SMILES beside them. ξ: configuration not given here. X1 = NC(CC(=O)[*:1])C(=O)[*:2]; ξOrn = NCCCC(N)C(=O)O; Nlys = NCCCCNCC(=O)O; ξK = NCCCCC(N)C(=O)O
# Columns and labels:
# [1] = Binding affinity to His-tagged HIV-1 integrase C56S, W131D, F185K and […] mutant by fluorescence anisotropy; design: species or system Human immunodeficiency virus 1
# [2] = Stability in trypsin and chymotrypsin extract assessed as duration showing initiation of compound degradation at 37 degC by mass spectrometry; format: ADME
# [3] = test system: Human immunodeficiency virus 1; test: Inhibition of His-tagged HIV-1 integrase C56S, W131D, F185K and […] mutant at 20 uM by fluorescence anisotropy
# [4] = test system: Human immunodeficiency virus 1; test: Antiviral activity against wild type HIV1 infected in human H9 cells assessed as p24 protein expression pre-incubated with cells for 2 hrs at 12.5 uM measured after 6 days post infection using single dose study; format: functional; conditions: for inhibition at 12.5 µM: Human immunodeficiency virus 1, H9
# [5] = test system: Human immunodeficiency virus 1; test: Antiviral activity against wild type HIV1 infected in human H9 cells assessed as p24 protein expression pre-incubated with cells for 2 hrs at 12.5 uM measured after 8 days post infection using multiple dose study wherein additional dose was added every 2 days; format: functional; conditions: for inhibition at 12.5 µM: Human immunodeficiency virus 1, H9
# [6] = test system: Human immunodeficiency virus 1; test: Antiviral activity against wild type HIV1 infected in human H9 cells assessed as p24 protein expression pre-incubated with cells for 2 hrs at 12.5 uM measured after 8 days post infection using single dose study; format: functional; conditions: for inhibition at 12.5 µM: Human immunodeficiency virus 1, H9
# [7] = test system: Human immunodeficiency virus 1; test: Antiviral activity against wild type HIV1 infected in human H9 cells assessed as p24 protein expression pre-incubated with cells for 2 hrs at 12.5 uM measured after 6 days post infection using multiple dose study wherein additional dose was added every 2 days; format: functional; conditions: for inhibition at 12.5 µM: Human immunodeficiency virus 1, H9
compound,measurement,setting,value
CC[C@H](C)[C@@H]1NC(=O)[C@H](CCCCN)NC(=O)[C@H](CC(C)C)NC(=O)[C@H](CO)NC(=O)[C@H](CC(N)=O)NC(=O)[C@H](Cc2c[nH]c3ccccc23)NC(=O)CC(N)C(=O)NCCCCC(C(N)=O)NC(=O)[C@H](C(C)C)NC(=O)[C@H](CC(=O)O)NC(=O)[C@H](CC(C)C)NC(=O)[C@H](CC(N)=O)NC(=O)[C@H](CC(=O)O)NC1=O (stereo partly drawn) (WNSLKIDNLDV[ξK]-NH2; linker N-12 via X1),pKd,[1],5.60
same,Stability,[2],150 min
same,inhibition,[3],55%
same,inhibition at 12.5 µM,[4],80%
same,inhibition at 12.5 µM,[5],85%
same,inhibition at 12.5 µM,[6],65%
same,inhibition at 12.5 µM,[7],85%
CC[C@H](C)[C@@H]1NC(=O)[C@H](CCCCN)NC(=O)[C@H](CC(C)C)NC(=O)[C@H](CO)NC(=O)[C@H](CC(N)=O)NC(=O)[C@H](Cc2c[nH]c3ccccc23)NC(=O)CC(N)C(=O)NCCCC(C(N)=O)NC(=O)[C@H](C(C)C)NC(=O)[C@H](CC(=O)O)NC(=O)[C@H](CC(C)C)NC(=O)[C@H](CC(N)=O)NC(=O)[C@H](CC(=O)O)NC1=O (stereo partly drawn) (WNSLKIDNLDV[ξOrn]-NH2; linker N-12 via X1),pKd,[1],5.70
same,Stability,[2],150 min
same,inhibition,[3],50%
same,inhibition at 12.5 µM,[4],25%
same,inhibition at 12.5 µM,[5],40%
same,inhibition at 12.5 µM,[6],25%
same,inhibition at 12.5 µM,[7],40%
H-WNSLKIDNLDV-OH,pKd,[1],5.29
same,Stability,[2],30 min
same,inhibition,[3],83%
same,inhibition,[4],inactive
same,inhibition,[5],Active
same,inhibition,[6],inactive
same,inhibition,[7],Active
CC[C@H](C)[C@@H]1NC(=O)[C@H](CCCCN)NC(=O)[C@H](CC(C)C)NC(=O)[C@H](CO)NC(=O)[C@H](CC(N)=O)NC(=O)[C@H](Cc2c[nH]c3ccccc23)NC(=O)CC(N)C(=O)NCCCCN(CC(N)=O)C(=O)[C@H](C(C)C)NC(=O)[C@H](CC(=O)O)NC(=O)[C@H](CC(C)C)NC(=O)[C@H](CC(N)=O)NC(=O)[C@H](CC(=O)O)NC1=O (stereo partly drawn) (WNSLKIDNLDV[Nlys]-NH2; linker N-12 via X1),pKd,[1],5.30
same,Stability,[2],150 min
same,inhibition,[3],90%
same,inhibition at 12.5 µM,[4],90%
same,inhibition,[5],Active
same,inhibition at 12.5 µM,[6],90%
same,inhibition,[7],Active
